Reference: patent US20260234107A1, “TRYPTAMINES AND METHODS OF TREATING MOOD DISORDERS” (priority 2022, published 2026)
Where two headings read alike, the source gives them in different places.

Legend:
[1] = test system: monoamine oxidase A and B (MAO-A and MAO-B); assay: Stability in the presence of monoamine oxidases (human liver mitochondria preparation); parameters: half-life / microsomal CLint: dose or concentration left out as unconfirmed; conditions: for Remaining (t = 60 min) / half-life / microsomal CLint: human liver mitochondria; for half-life / microsomal CLint: human, pH 7.4; for stability in the presence of MAO (in words): human liver mitochondria preparation
Method: Liver Mitochondria Incubations. Human liver mitochondria (Xenotech H0610.M) were used.

5-HT2B = molecular target: T1, 5-HT2B (Homo sapiens, UniProt P41595); assay: FLIPR Ca2+ flux agonist assay at 5-HT2B; type: cell-based; conditions: for 5-HT2B % Act @ Max Dose: Ca2+ flux, HEK293, max dose
T1 construct: host or cells: HEK293
Method: (§1) A solution of 250 mM probenecid in 1 mL FLIPR assay buffer was prepared fresh. This was combined with a fluorescent dye (Fluo-4 Direct™) to make a final assay concentration of 2.5 mM. […] The fluorescent dye was then added to the assay plate along with assay buffer to a final volume of 40 μL. The cell plate was incubated for 50 min at 37° C. and 5% CO2 and placed into the FLIPR Tetra along with the compound plate. 10 μL of references and compounds were then transferred from the compound plate into the cell plate and the fluorescent signal was read.

5-HT1A = molecular target: T2, 5-HT1A (Homo sapiens, UniProt P08908); assay: FLIPR Ca2+ flux agonist assay at 5-HT1A; type: cell-based; conditions: for 5-HT1A % Act @ Max Dose: Ca2+ flux, CHO cells
T2 construct: host or cells: CHO cells
T2 sequence (P08908 1-422): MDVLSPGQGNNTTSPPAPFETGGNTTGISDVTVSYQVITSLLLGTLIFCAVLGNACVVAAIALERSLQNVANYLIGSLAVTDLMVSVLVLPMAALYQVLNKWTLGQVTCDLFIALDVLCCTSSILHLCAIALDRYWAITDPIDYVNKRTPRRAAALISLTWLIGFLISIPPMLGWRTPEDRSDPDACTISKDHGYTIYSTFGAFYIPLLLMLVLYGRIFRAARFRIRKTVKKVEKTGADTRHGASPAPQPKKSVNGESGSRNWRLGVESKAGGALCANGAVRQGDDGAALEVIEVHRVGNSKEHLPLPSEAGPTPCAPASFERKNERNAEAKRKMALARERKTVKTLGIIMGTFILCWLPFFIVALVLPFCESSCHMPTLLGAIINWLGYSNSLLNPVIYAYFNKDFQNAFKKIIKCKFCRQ
Method: as §1

[2] = Stability in mouse brain homogenate; type: in vitro ADME, male CD-1 mice; conditions: mouse brain homogenate, 1 μM, 37° C.; for half-life at 1 µM: male, CD-1
Method: Disclosed compounds were tested for stability in mouse brain homogenate (Table 7). There was widely variable stability among the test compounds under the conditions of the experiment.
(§2) Mouse Brain Homogenate Stability. Frozen mouse brain homogenate (pooled from male CD-1 mice, BioreclamationIVT, MSE00BRAINMZA) was thawed in a water bath at 37° C. immediately prior to use. Positive controls and test compounds (final concentration in incubation medium=1 μM for test compounds and 2 μM for controls, all with 2% DMSO) were incubated in duplicate for each time point (0, 10, 30, 60, and 120 min) in the mouse brain homogenate at a total reaction volume of 100 μL at 37° C. At the end of each incubation period, reactions were immediately quenched with 400 μL of acetonitrile containing internal standard (200 ng/mL tolbutamine and 200 ng/mL labetalol) and mixed thoroughly. Plates were then sealed, shaken for 20 min, and centrifuged at 4,000 rpm and 4° C. for 20 min. Aliquots of 50 μL of each supernatant were diluted into 100 μL of water and the mixtures were then shaken again for 10 min.

[3] = Stability in rat brain homogenate; type: in vitro ADME, male Sprague Dawley rats; conditions: rat brain homogenate, 1 μM, 37° C.; for half-life at 1 µM: male, Sprague Dawley
Method: Disclosed compounds were tested for stability in rat brain homogenate (Table 8). There was widely variable stability among the test compounds under the conditions of the experiment.
as §2, with “Rat” for “Mouse”, “rat” for “mouse”, “Sprague Dawley rats,” for “CD-1 mice,”, “RAT00BRAINMZA)” for “MSE00BRAINMZA)”

5-HT2A = 5-HT2A (Homo sapiens, UniProt P28223); assay: FLIPR Ca2+ flux agonist assay at 5-HT2A; type: cell-based; parameters: host or cells: HEK293; conditions: for 5-HT2A % Act @ Max Dose: HEK293, max dose
Method: as §1

[4] = Metabolic stability in human liver microsomes (HLM); parameters: microsomal CLint / half-life: dose or concentration left out as unconfirmed; conditions: both, human, pooled human liver microsomes, pH 7.4
[5] = human liver mitochondria 0.30 mg protein/mL, 37° C.
[6] = Ca2+ flux, HEK293, read-out: 5-HT2A EC50

Sequence of 5-HT2A (P28223 whole entry): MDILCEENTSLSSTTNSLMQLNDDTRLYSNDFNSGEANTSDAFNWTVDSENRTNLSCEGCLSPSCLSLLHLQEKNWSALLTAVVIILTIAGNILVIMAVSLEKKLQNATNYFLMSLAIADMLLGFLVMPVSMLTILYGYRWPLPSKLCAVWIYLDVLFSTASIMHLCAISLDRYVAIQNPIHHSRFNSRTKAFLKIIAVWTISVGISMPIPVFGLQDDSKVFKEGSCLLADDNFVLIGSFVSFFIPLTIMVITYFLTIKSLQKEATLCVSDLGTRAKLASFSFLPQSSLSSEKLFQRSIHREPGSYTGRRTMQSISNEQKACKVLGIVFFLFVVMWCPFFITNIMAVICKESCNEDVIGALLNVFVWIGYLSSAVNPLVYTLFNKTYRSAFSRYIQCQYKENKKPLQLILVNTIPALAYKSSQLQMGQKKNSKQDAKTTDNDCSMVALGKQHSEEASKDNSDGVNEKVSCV
T1 sequence (P41595 whole entry, species assumed): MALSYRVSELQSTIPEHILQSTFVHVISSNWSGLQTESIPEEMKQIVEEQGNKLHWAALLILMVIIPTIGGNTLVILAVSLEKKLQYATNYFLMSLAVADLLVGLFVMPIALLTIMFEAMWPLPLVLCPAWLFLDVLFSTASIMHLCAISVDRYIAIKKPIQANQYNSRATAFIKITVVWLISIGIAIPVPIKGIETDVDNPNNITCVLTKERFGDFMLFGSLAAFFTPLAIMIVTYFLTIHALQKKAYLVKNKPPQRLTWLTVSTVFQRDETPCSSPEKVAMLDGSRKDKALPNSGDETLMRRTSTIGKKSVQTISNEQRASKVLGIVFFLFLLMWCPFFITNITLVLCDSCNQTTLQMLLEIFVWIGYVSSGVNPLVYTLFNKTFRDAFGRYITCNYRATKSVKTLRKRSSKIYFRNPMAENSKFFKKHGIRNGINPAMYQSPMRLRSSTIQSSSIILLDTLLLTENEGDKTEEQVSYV

| SMILES | Remaining (t = 60 min) [1] [%] | half-life [1] [min] | microsomal CLint [1] [µL/min/mg] | EC50 (5-HT2B) [nM] | 5-HT2B % Act @ Max Dose (5-HT2B) [%] | EC50 (5-HT1A) [nM] | 5-HT1A % Act @ Max Dose (5-HT1A) [%] | half-life at 1 µM [2] [min] | % Compound Remaining (after 120 min) [2] [%] | half-life at 1 µM [3] [min] | % Compound Remaining (after 120 min) [3] [%] | EC50 (5-HT2A) [nM] | 5-HT2A % Act @ Max Dose (5-HT2A; Ca2+ flux) [%] | half-life [4] [min] | microsomal CLint [4] [µL/min/mg] | stability in the presence of MAO (in words) [1] | EC50 (5-HT2A; [6]) [nM] | other results |
| --- | --- | --- | --- | --- | --- | --- | --- | --- | --- | --- | --- | --- | --- | --- | --- | --- | --- | --- |
| NCCc1c[nH]c2cccc(O)c12 [Compound 1, 3-(2-aminoethyl)-1H-indol-4-ol] | 51.1 | 70.5 | 32.8 | 151 | 83.98 | 92600 | 49.9 | 12.6 | 0.0 | 10 | 0.0 | 33.4 | 99.2 | 34.3 | 40.4 | – | – | – |
| COc1ccc2[nH]cc(CCN(C)C)c2c1 [Compound 5-MeO-DMT, reference compound] | 47.1 | – | – | – | 20.5 | – | 78.8 | – | 91.2 | – | 0.3 | – | – | – | – | rapidly metabolized by MAO | – | CLint(MAO) [1, 5]: 43.6 µL/min/mg; t1/2 [1, 5]: 52.9 min; t1/2 [2]: >289.1 min; t1/2 [3]: 14.4 min |
| Oc1cccc2[nH]cc(CCNCCF)c12 [Compound 7, 3-(2-((2-fluoroethyl)amino)ethyl)-1H-indol-4-ol] | 85.2 | > 145 | < 15.9 | 375 | 20.76 | > 100000 | 42.13 | 177 | 61.8 | > 289 | 77.1 | 47.2 | 86.8 | 77 | 18 | – | – | – |
| C=CCNCCc1c[nH]c2cccc(O)c12 [Compound 23, 3-(2-(allylamino)ethyl)-1H-indol-4-ol] | 83.5 | > 145 | – | – | – | – | – | 127 | 49.6 | 126 | 52.4 | – | – | 118 | 11.8 | – | – | – |
| C#CCNCCc1c[nH]c2cccc(O)c12 [Compound 24, 3-(2-(prop-2-yn-1-ylamino)ethyl)-1H-indol-4-ol] | 87.2 | > 145 | < 15.9 | 88.3 | 48.26 | > 100000 | −3.14 | 97.3 | 40.5 | 92.4 | 41.9 | 20.1 | 96.07 | 92.4 | 15 | – | – | – |
| CNCCc1c[nH]c2ccc(F)c(O)c12 [Compound 26, 5-fluoro-3-(2-(methylamino)ethyl)-1H-indol-4-ol] | 0.1 | 6.3 | 369 | – | 13.87 | 3490 | 74.21 | 1.7 | 0 | 2.2 | 0 | 21 | 86.9 | 0.9 | 1520 | – | – | – |
| Oc1c(F)ccc2[nH]cc(CCNC3CC3)c12 [Compound 27, 3-(2-(cyclopropylamino)ethyl)-5-fluoro-1H-indol-4-ol] | 32.1 | 36.2 | 63.9 | 9.53 | 36.08 | 1230 | 84.02 | 69.6 | 29.4 | 15.1 | 0.4 | – | – | 19.8 | 70 | intermediate stability | 7.37 | – |
| CCNCCc1c[nH]c2cc(F)cc(O)c12 [Compound 29, 3-(2-(ethylamino)ethyl)-6-fluoro-1H-indol-4-ol] | 99.1 | > 145 | < 15.9 | – | 12.18 | – | 16.22 | 59.9 | 29.9 | 113 | 51.9 | 17.4 | 80.80 | > 145 | < 9.6 | – | – | – |
| NCCc1c[nH]c2ccc(F)c(O)c12 [Compound 30, 3-(2-aminoethyl)-5-fluoro-1H-indol-4-ol] | 0.0 | 6.5 | 356 | 4.62 | 95.46 | 5220 | 73.4 | 6.4 | 0 | 3.9 | 0.1 | – | – | 9.3 | 149 | – | 4.06 | – |
| NCCc1c[nH]c2cc(F)cc(O)c12 [Compound 31, 3-(2-aminoethyl)-6-fluoro-1H-indol-4-ol] | 24.6 | 30.1 | 76.8 | 5.07 | 99.12 | 12500 | 18.3 | 20.3 | 1.6 | 11.4 | 0 | – | – | 16.9 | 81.8 | intermediate stability | 6.36 | – |
| NCCc1c[nH]c2c(F)ccc(O)c12 [Compound 32, 3-(2-aminoethyl)-7-fluoro-1H-indol-4-ol] | 24.0 | 28.4 | 81.4 | 30.3 | 66.55 | > 100000 | 38.64 | 29 | 4.8 | 9.5 | 0 | – | – | 16 | 86.5 | intermediate stability | 7.3 | – |
